Source: patent US20130296266A1, “Pharmaceutical Composition of Complex Carbohydrates and Essential Oils and Methods of Using the Same” (Dermal Research Laboratories, Inc., priority 1999, published 2013)

Assays:
polymyositis = test: Mucosal treatment of polymyositis (Example 26); format: in vivo, human; conditions: 50 mg daily
Method: A person suffering from colon cancer had been unable to tolerate their colostomy and demanded that their surgeon reconnect their intestines. They refused chemotherapy but requested a preparation prepared according to this invention. They were given a formulation of sodium hyaluronate (Collaborative Laboratories, Inc) which was prepared with a mixture of molecular weights of hyaluronate (as in EXAMPLE 4). When they began taking the hyaluronate preparation, their CEA was 70.1. They have taken the hyaluronate at a dose of 10 mg three times per day mucosally and after 6 months of treatment their CEA has dropped to 4.1. They have taken no other treatments. This patient had also suffered from polymyositis for 15 years. […] After 6 months they have been able to reduce their Prednisone to 5 mg per day.

chronic eczema = test: Topical treatment of chronic eczema (Example 16); format: in vivo, human; conditions: person
Description: A person suffered from chronic eczema—scaly and red areas on their neck and arms. They had tried all types of treatments, including cortisone with no effect. They were given a preparation containing a mixture of low and high molecular weight sodium hyaluronate (prepared as in EXAMPLE 4) mixed with 1% Wintergreen Oil, 1% Spearmint Oil, and 0.5% Peppermint Oil. They applied it for one week. […] They have not treated the area for 2 months and has noted no return of signs of eczema.

| Compound | relief of polymyositis (polymyositis) | effect on eczema (chronic eczema) |
| --- | --- | --- |
| C[C@]12C=CC(=O)C=C1CC[C@@H]1[C@@H]2C(=O)C[C@@]2(C)[C@H]1CC[C@]2(O)C(=O)CO [Prednisone] | without much relief | – |
| C[C@]12CCC(=O)C=C1CC[C@@H]1[C@@H]2C(=O)C[C@@]2(C)[C@H]1CC[C@]2(O)C(=O)CO [cortisone] | – | no effect |
